≈ marks a conversion by molar mass, not a printed value. Entries after “also recorded” stand apart in the source; their conditions may differ.
Columns and labels:
P. aeruginosa PAO1 [1] = assay: Inhibition of biofilm formation, crystal violet; format: cell-based, Pseudomonas aeruginosa; details: for Biofilm formation (%): P. aeruginosa PAO1, 50 μg mL^-1
Text: (§1) Test organisms for the antibacterial assays were obtained from the National Collection of Type Cultures (NCTC) and the American Type Culture Collection (ATCC). P. aeruginosa PAO1 NCTC 10332, S. aureus ATCC 25923 and S. aureus ATCC 43300 (MRSA) and S. marcescens ATCC 27117 were used in this study. One clinical isolate of P. aeruginosa DM50 with high ability to form biofilms and resistance to metronidazole, clindamycin and amoxicillin was also included ([Glisic et al., 2016]). Bacterial strains were grown in Luria Bertani (LB) broth at 37°C on a rotary shaker at 180 rpm.
(§2) Biofilm quantification assays were performed in 96-well microtiter plates using a crystal violet (CV) method to stain adherent cells ([Merritt et al., 2005]). Overnight cultures of bacteria were diluted to 5 × 10^7 cfu mL^-1 in LB and 100 μL was added to the wells in the presence of test compounds or DMSO (0.1%, v/v). Biofilms formed for 24 h at 37°C for P. aeruginosa and S. aureus, or 30°C for S. marcescens were washed and adherent cells stained with CV 0.1% (v/v). BFIC50 (concentration of compound that inhibited biofilm formation by 50%) was determined for each compound.
The effect of rhamnolipids on P. aeruginosa biofilm formation was examined additionally by introducing 3 h adhesion phase after inoculation with 5 × 10^7 cfu mL^-1 cells. Following adhesion, the supernatant was removed and, after two washing steps with phosphate buffered saline (PBS), test compounds or DMSO were applied and the biofilms were quantified after 24 h using CV. Each biofilm formation assay was performed in six wells and repeated at least three times.

P. aeruginosa DM50 [2] = assay: Inhibition of biofilm formation, crystal violet; format: cell-based, Pseudomonas aeruginosa; details: P. aeruginosa DM50, 50 μg mL^-1
Text: as §1, §2

S. aureus ATCC 25923 [3] = assay: Inhibition of biofilm formation, crystal violet; format: cell-based, Staphylococcus aureus; details: S. aureus ATCC 25923, 50 μg mL^-1
Text: as §1, §2

S. aureus MRSA [4] = assay: Inhibition of biofilm formation, crystal violet; format: cell-based, Staphylococcus aureus
Text: as §1, §2

S. marcescens ATCC 27117 [5] = assay: Inhibition of biofilm formation, crystal violet; format: cell-based, Serratia marcescens; details: S. marcescens ATCC 27117, 50 μg mL^-1
Text: as §1, §2

P. aeruginosa DM50 [6] = assay: Biofilm dispersion assay, crystal violet; format: cell-based, Pseudomonas aeruginosa; details: P. aeruginosa DM50, 50 μg mL^-1
Text: as §1
(§3) An overnight culture of P. aeruginosa was diluted to 5 × 10^7 cfu mL^-1 in LB and 100 μL was added to the wells in 96-well microtiter plates and incubated for 24 h at 37°C. After removal of the supernatant and two washing steps with PBS adherent cells were treated with different concentrations of rhamnolipids or derivatives for additional 24 h and the biofilms were quantified using CV as described above. Biofilm dispersion assays were performed in six wells and repeated three times.

P. aeruginosa PAO1 [7] = assay: Biofilm dispersion assay, crystal violet; format: cell-based, Pseudomonas aeruginosa; details: for Biofilm biomass (%) remained after biofilm dispersion: P. aeruginosa PAO1, 50 μg mL^-1
Text: as §1, §3

S. aureus ATCC 25923 [8] = assay: Biofilm dispersion assay, crystal violet; format: cell-based, Staphylococcus aureus; details: S. aureus ATCC 25923, 50 μg mL^-1
S. aureus MRSA [9] = assay: Biofilm dispersion assay, crystal violet; format: cell-based, Staphylococcus aureus
S. marcescens ATCC 27117 [10] = assay: Biofilm dispersion assay, crystal violet; format: cell-based, Serratia marcescens; details: S. marcescens ATCC 27117, 50 μg mL^-1
Text: as §1, §3

P. aeruginosa DM50 [11] = assay: MIC, broth microdilution, planktonic cells; format: cell-based; details: Pseudomonas aeruginosa; P. aeruginosa DM50, 24 h incubation
Text: as §1
(§4) The minimum inhibitory concentration (MIC) of rhamnolipids and their derivatives were determined according to standard broth microdilution assays recommended by the National Committee for Clinical Laboratory Standards (M07-A8).
(§5) Stock solutions of rhamnolipids and derivatives were prepared in DMSO (50 g L^-1, w/v). The highest concentration used was 500 mg L^-1. The inoculums were 10^5 colony forming units (cfu) mL^-1.

P. aeruginosa PAO1 [12] = assay: MIC, broth microdilution, planktonic cells; format: cell-based; details: Pseudomonas aeruginosa; P. aeruginosa PAO1, 24 h incubation
Text: as §1, §4, §5

S. aureus ATCC 25923 [13] = assay: MIC, broth microdilution, planktonic cells; format: cell-based; details: Staphylococcus aureus, ATCC25923, 24 h, S. aureus ATCC 25923, 24 h incubation
Text: as §1, §4, §5

S. aureus MRSA [14] = assay: MIC, broth microdilution, planktonic cells; format: cell-based; details: Staphylococcus aureus, 24 h, 24 h incubation
Text: as §1, §4, §5

S. marcescens ATCC 27117 [15] = assay: MIC, broth microdilution, planktonic cells; format: cell-based; details: Serratia marcescens, ATCC27117; S. marcescens ATCC 27117, 24 h incubation
Text: as §1, §4, §5

[16] = tested on: MRC5 human lung fibroblasts; assay: Cytotoxicity assay, MTT; format: cell-based; details: concentrations up to 100 μg mL^-1, MTT, 48 h
Procedure: MRC5 human lung fibroblasts were obtained from the ATCC. Cells were maintained as monolayer cultures in RPMI-1640 supplemented with 100 mg L^-1 streptomycin, 100 U mL^-1 penicillin and 10% (v/v) FBS (all from Sigma, Munich, Germany). Cells were grown in a humidified atmosphere of 95% air and 5% CO2 at 37°C.
Cytotoxicity on MRC5 cells was evaluated with 3-(4,5-dimethylthiazol-2-yl)-2,5-diphenyltetrazolium bromide (MTT). The assay was carried out after 48 h of cell incubation in the media containing test compounds at different concentrations and the viability was measured as described ([Mihajlovic et al., 2012]). The results are presented as the percentage of the control (untreated cells) that was arbitrarily set to 100%.

P. aeruginosa PAO1-GFP = assay: Anti-adhesion assay, GFP fluorescence; format: cell-based, Pseudomonas aeruginosa; details: 2 h
Procedure: Anti-adhesion assay was performed as previously described ([Shetye et al., 2014]) with some modifications. An overnight culture of P. aeruginosa PAO1 containing pBBR2-GFP ([da Silva et al., 2014]) was subcultured (initial OD600 = 0.02) in M9+/LB (95:5) containing gentamycin (80 mg L^-1), tetracycline (20 mg L^-1), and chloramphenicol (50 mg L^-1) at 37°C in a rotary shaker (200 rpm). After reaching OD600 = 0.1, aliquots (200 μL) were transferred to the wells of black polystyrene microtiter plate with rhamnolipids, derivatives or DMSO (control). After incubation at 37°C for 2 h, bacterial cultures were discarded, and the fluorescence of adherent cells was measured after addition of fresh M9+/LB (95:5) medium using Tecan Infinite 200 Microplate reader (Tecan Group Ltd., Switzerland, lex = 500 nm, lem = 540 nm). Background signal (M9+/LB (95:5) was subtracted from all the samples. Assays were repeated three times; inhibition values are the averages of six replicate wells from one experiment.

[17] = listed as Rha-TBDMS (Lysinibacillus sp. BV152.1)
[18] = 50 μg mL^-1, listed as Rha-TBDMS (Lysinibacillus sp. BV152.1)

| SMILES | MIC (P. aeruginosa DM50 [11]) | MIC (P. aeruginosa PAO1 [12]) | MIC (S. aureus ATCC 25923 [13]) | MIC (S. aureus MRSA [14]) | MIC (S. marcescens ATCC 27117 [15]) | Biofilm formation (%) (P. aeruginosa PAO1 [1]) | Biofilm formation (%) (P. aeruginosa DM50 [2]) | Biofilm formation (%) (S. aureus ATCC 25923 [3]) | Biofilm formation (%) (S. aureus MRSA [4]; 50 μg mL^-1) | Biofilm formation (%) (S. marcescens ATCC 27117 [5]) | Biofilm biomass (%) remained after biofilm dispersion (P. aeruginosa DM50 [6]) | Biofilm biomass (%) remained after biofilm dispersion (P. aeruginosa PAO1 [7]) | Biofilm biomass (%) remained after biofilm dispersion (S. aureus ATCC 25923 [8]) | Biofilm biomass (%) remained after biofilm dispersion (S. aureus MRSA [9]; 50 μg mL^-1) | Biofilm biomass (%) remained after biofilm dispersion (S. marcescens ATCC 27117 [10]) | Viability of human lung fibroblasts (MRC5) [16] | also measured |
| --- | --- | --- | --- | --- | --- | --- | --- | --- | --- | --- | --- | --- | --- | --- | --- | --- | --- |
| CCCCCCCC(CC(=O)O)OC(=O)CC(CCCCCCC)O[C@@H]1O[C@@H](C)[C@H](O[Si](C)(C)C(C)(C)C)[C@@H](O[Si](C)(C)C(C)(C)C)[C@H]1O[C@@H]1O[C@@H](C)[C@H](O[Si](C)(C)C(C)(C)C)[C@@H](O[Si](C)(C)C(C)(C)C)[C@H]1O[Si](C)(C)C(C)(C)C (some centres unmarked) |  |  |  |  |  |  |  |  |  |  |  |  |  |  |  |  | anti-biofilm formation activity (P. aeruginosa PAO1 [1]; P. aeruginosa PAO1): no anti-biofilm formation activity; Biofilm formation (%) (P. aeruginosa PAO1 [1]; [17]): 115 ± 10%; Biofilm formation (%) (P. aeruginosa DM50 [2]; [17]): 100 ± 8%; Biofilm formation (%) (S. aureus ATCC 25923 [3]; [17]): 88 ± 12%; Biofilm formation (%) (S. aureus MRSA [4]; [18]): 106 ± 4%; Biofilm formation (%) (S. marcescens ATCC 27117 [5]; [17]): 85 ± 1%; Biofilm biomass (%) remained after biofilm dispersion (P. aeruginosa DM50 [6]; [17]): 65 ± 1%; Biofilm biomass (%) remained after biofilm dispersion (P. aeruginosa PAO1 [7]; [17]): 80 ± 6%; Biofilm biomass (%) remained after biofilm dispersion (S. aureus ATCC 25923 [8]; [17]): 110 ± 22%; Biofilm biomass (%) remained after biofilm dispersion (S. aureus MRSA [9]; [18]): 101 ± 14%; Biofilm biomass (%) remained after biofilm dispersion (S. marcescens ATCC 27117 [10]; [17]): 99 ± 8% |
| CCCCCCCC(CC(=O)O)OC(=O)CC(CCCCCCC)O[C@@H]1O[C@@H](C)[C@H](O)[C@@H](O)[C@H]1O[C@@H]1O[C@@H](C)[C@H](O)[C@@H](O)[C@H]1O (stereo partly drawn) [di-Rha, Rha-Rha-C10-C10] | > 500 µg/mL | > 500 µg/mL | > 500 µg/mL | > 500 µg/mL | > 500 µg/mL | 50 ± 3% | 109 ± 10% | 37 ± 4% | 44 ± 11% | 20 ± 5% | 135 ± 10% | 77 ± 3% | 80 ± 9% | 82 ± 7% | 193 ± 8% | not affected; also recorded: not toxic | effect on biofilm formation when bacteria were left to attach prior to treatment (P. aeruginosa PAO1 [1]; P. aeruginosa PAO1, concentrations up to 50 μg mL^-1): stimulated biofilm formation; IC50 (P. aeruginosa PAO1 [1]; Pseudomonas aeruginosa, P. aeruginosa PAO1, 24 h, read-out: BFIC50 (concentration of compound that inhibited biofilm formation by 50%)): 75 µg/mL (≈ 115 µM); disruption of pre-formed biofilms (P. aeruginosa PAO1 [7]; 24 h old P. aeruginosa biofilms, 100 μg mL^-1): up to 20% |
| CCCCCCCC(CC(=O)O)OC(=O)CC(CCCCCCC)O[C@@H]1O[C@@H](C)[C@H](O[Si](C)(C)C(C)(C)C)[C@@H](O[Si](C)(C)C(C)(C)C)[C@H]1O[C@@H]1O[C@@H](C)[C@H](O[Si](C)(C)C(C)(C)C)[C@@H](O[Si](C)(C)C(C)(C)C)[C@H]1O[Si](C)(C)C(C)(C)C (some centres unmarked) [di-Rha-TBDMS (P. aeruginosa)] | > 500 µg/mL | > 500 µg/mL | > 500 µg/mL | > 500 µg/mL | > 500 µg/mL | 95 ± 7% | 73 ± 6% | 88 ± 10% | 69 ± 11% | 117 ± 4% | 78 ± 10% | 76 ± 10% | 82 ± 3% | 120 ± 10% | 155 ± 3% | not affected | anti-adhesion activity (P. aeruginosa PAO1-GFP): no significant anti-adhesion activity |
